# In US9266908B2, “Inhibitors of arginase and their therapeutic applications” (MARS, INCORPORATED, priority 2011, dated 2016):
# What was measured:
# [1] = system: experimental autoimmune encephalomyelitis (EAE); details: animals undergoing EAE; cited from earlier work
# arginase II (ARG II) = target: T1, arginase II (ARG II) (Homo sapiens, UniProt P78540); assay: Inhibition of arginase II, spectrophotometric urea assay at 530 nm
# T1 sequence (P78540 23-354): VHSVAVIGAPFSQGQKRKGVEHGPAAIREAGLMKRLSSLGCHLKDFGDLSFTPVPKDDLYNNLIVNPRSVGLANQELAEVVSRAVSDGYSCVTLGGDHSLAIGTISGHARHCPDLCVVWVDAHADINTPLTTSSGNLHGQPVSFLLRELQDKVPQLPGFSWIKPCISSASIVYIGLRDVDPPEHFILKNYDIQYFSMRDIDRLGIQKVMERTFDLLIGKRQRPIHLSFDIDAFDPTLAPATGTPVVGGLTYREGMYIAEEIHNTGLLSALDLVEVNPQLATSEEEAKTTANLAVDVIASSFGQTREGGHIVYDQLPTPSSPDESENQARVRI
# human arginase I (ARG I) = target: T2, human arginase I (ARG I) (Homo sapiens, UniProt P05089); assay: Inhibition of arginase I, spectrophotometric urea assay at 530 nm
# T2 sequence (P05089 1-322): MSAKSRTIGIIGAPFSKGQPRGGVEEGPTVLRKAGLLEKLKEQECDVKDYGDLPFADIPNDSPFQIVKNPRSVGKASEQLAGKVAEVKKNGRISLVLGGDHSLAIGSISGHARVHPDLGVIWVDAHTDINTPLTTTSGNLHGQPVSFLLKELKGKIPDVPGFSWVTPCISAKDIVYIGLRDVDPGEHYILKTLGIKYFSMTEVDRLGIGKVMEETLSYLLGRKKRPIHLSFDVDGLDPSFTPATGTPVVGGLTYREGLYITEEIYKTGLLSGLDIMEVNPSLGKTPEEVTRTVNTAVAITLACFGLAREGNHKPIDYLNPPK
# human-Arginase-1 = target: T3, human-Arginase-1 (Homo sapiens, UniProt P05089); assay: Urea production in CHOK cells stably transfected with human-Arginase-1; type: cell-based; details: IC50 class, 5 mM arginine, 24 hours, read-out: CHOK Cell
# T3 construct: expressed in transfected cells; host or cells: CHOK cells
# T3 sequence (P05089 1-322): T2 sequence (P05089 1-322)
# bacterial arginase = details: cited from earlier work
# murine chronic model = details: cited from earlier work
# [2] = system: spontaneously hypertensive animals; details: cited from earlier work
SMILES,IC50 (arginase II (ARG II)) [nM],IC50 (human arginase I (ARG I)) [nM],IC50 (human-Arginase-1) [nM],also measured
"NC(CCCCB(O)O)C(=O)O (stereo not drawn) [ABH, amino-6-boronohexanoic acid]",,,,form of EAE developed versus control animals [1]: much milder form of EAE
"NC(CCCCB(O)O)(C(=O)O)C1CC2CCC(C1)N2Cc1ccc(Cl)cc1 [Example 45, 2-amino-6-borono-2-{(1R,5S)-8-(4-chlorobenzyl)-8-aza-bicycli[3.2.1]-octan-3-yl}-hexanoic acid]",26 to 100,0.1 to 25,1000 to 25000,
"NC(CCCCB(O)O)(C(=O)O)C1CC2CCC(C1)N2Cc1ccc(Cl)c(Cl)c1 [Example 46, 2-Amino-6-borono-2-{(1R,5S)-8-(3,4-dichlorobenzyl)-8-aza-bicycli[3.2.1]-octan-3-yl}-hexanoic acid]",0.1 to 25,0.1 to 25,1000 to 25000,
"NC(CCCCB(O)O)(C(=O)O)[C@H]1C[C@@H](NCc2ccc(-c3ccc(Cl)cc3)cc2F)C1 (stereo partly drawn) [Example 49, (S)-2-amino-6-borono-2-((1s,3R)-3-((4′-chloro-3-fluorobiphenyl-4-yl)methylamino)cyclobutyl)hexanoic acid]",0.1 to 25,0.1 to 25,1000 to 25000,
"NC(CCCCB(O)O)(C(=O)O)[C@H]1C[C@@H](NCCCc2ccc(C(F)(F)F)cc2)C1 (stereo partly drawn) [Example 56, (S)-2-amino-6-borono-2-((1s,3R)-3-(3-(4-(trifluoromethyl)phenyl)propylamino)cyclobutyl)hexanoic acid]",26 to 100,0.1 to 25,26000 to 100000,
"NC(CCCCB(O)O)(C(=O)O)C1CC2CCC(C1)N2 (stereo not drawn) [Example 61, 2-amino-2-(8-azabicyclo[3.2.1]octan-3-yl)-6-boronohexanoic acid]",26 to 100,26 to 100,1000 to 25000,
"NC(CCCCB(O)O)(C(=O)O)C1CC2CCC(C1)N2Cc1ccccc1 (stereo not drawn) [Example 62, 2-amino-2-(8-benzyl-8-azabicyclo[3.2.1]octan-3-yl)-6-boronohexanoic acid]",26 to 100,0.1 to 25,1000 to 25000,
"NC(CCCCB(O)O)(C(=O)O)C1CC2CCC(C1)N2Cc1ccc(F)c(F)c1 (stereo not drawn) [Example 63, 2-amino-6-borono-2-(8-(3,4-difluorobenzyl)-8-azabicyclo[3.2.1]octan-3-yl)hexanoic acid]",26 to 100,0.1 to 25,1000 to 25000,
"NC(CCCCB(O)O)(C(=O)O)C1CC2CCC(C1)N2Cc1ccc(OC(F)(F)F)cc1 (stereo not drawn) [Example 64, 2-amino-6-borono-2-(8-(4-(trifluoromethoxy)benzyl)-8-azabicyclo[3.2.1]octan-3-yl)hexanoic acid]",26 to 100,26 to 100,26000 to 100000,
"CCN(CCO)CC[C@](N)(CCCCB(O)O)C(=O)O [Example 67, (R)-2-amino-6-borono-2-(2-(ethyl(2-hydroxyethyl)amino)ethyl)hexanoic acid]",101 to 500,501 to 1500,1000 to 25000,
"CCN(CC)CC[C@](N)(CCCCB(O)O)C(=O)O [Example 68, (R)-2-amino-6-borono-2-(2-(diethylamino)ethyl)hexanoic acid]",101 to 500,101 to 500,1000 to 25000,
NC(=NCCC[C@H](N)C(=O)O)NO [NOHA],,,,CD3 expression on T-cells (bacterial arginase): reestablished; production of NO by macrophages (bacterial arginase): enhanced
N[C@@H](CSCCB(O)O)C(=O)O [S-(2-boronoethyl)-L-cysteine],,,,methacholine induced responsiveness of the central airways (murine chronic model): attenuated
"N=C(NO)NCC[C@H](N)C(=O)O [nor-NOHA, N^ω-hydroxy-nor-L-arginine]",,,,blood pressure [2]: lowered; vascular response of resistance vessels to blood flow and pressure [2]: improved
